Where two headings read alike, the source gives them in different places.
Key:
[1] = system: STAT3 phosphorylation by IL-6 in TF-1 cells; assay: JAK cellular assay: STAT3 phosphorylation by IL-6 in TF-1 cells (HTRF); type: cell-based; conditions: Homo sapiens, TF-1, TF-1 cells
Outline: (§1)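 TF-1 cells starved overnight in low-serum OptiMEM, then 120,000/well in RPMI, preincubated with compound 30 min at 37 °C (0.2% DMSO final). Stimulation 20 min with IL-6 30 ng/ml (pSTAT3) or GMCSF 5 ng/ml (pSTAT5); lysate phospho-STAT by HTRF, unstimulated background subtracted.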

Recombinant JAK3 = target: T1, Recombinant JAK3 (Homo sapiens, UniProt P52333); assay: JAK biochemical assay (LANCE Ultra TR-FRET), JAK3
T1 construct: purchased Carna Biosciences
T1 sequence (P52333 1-1124): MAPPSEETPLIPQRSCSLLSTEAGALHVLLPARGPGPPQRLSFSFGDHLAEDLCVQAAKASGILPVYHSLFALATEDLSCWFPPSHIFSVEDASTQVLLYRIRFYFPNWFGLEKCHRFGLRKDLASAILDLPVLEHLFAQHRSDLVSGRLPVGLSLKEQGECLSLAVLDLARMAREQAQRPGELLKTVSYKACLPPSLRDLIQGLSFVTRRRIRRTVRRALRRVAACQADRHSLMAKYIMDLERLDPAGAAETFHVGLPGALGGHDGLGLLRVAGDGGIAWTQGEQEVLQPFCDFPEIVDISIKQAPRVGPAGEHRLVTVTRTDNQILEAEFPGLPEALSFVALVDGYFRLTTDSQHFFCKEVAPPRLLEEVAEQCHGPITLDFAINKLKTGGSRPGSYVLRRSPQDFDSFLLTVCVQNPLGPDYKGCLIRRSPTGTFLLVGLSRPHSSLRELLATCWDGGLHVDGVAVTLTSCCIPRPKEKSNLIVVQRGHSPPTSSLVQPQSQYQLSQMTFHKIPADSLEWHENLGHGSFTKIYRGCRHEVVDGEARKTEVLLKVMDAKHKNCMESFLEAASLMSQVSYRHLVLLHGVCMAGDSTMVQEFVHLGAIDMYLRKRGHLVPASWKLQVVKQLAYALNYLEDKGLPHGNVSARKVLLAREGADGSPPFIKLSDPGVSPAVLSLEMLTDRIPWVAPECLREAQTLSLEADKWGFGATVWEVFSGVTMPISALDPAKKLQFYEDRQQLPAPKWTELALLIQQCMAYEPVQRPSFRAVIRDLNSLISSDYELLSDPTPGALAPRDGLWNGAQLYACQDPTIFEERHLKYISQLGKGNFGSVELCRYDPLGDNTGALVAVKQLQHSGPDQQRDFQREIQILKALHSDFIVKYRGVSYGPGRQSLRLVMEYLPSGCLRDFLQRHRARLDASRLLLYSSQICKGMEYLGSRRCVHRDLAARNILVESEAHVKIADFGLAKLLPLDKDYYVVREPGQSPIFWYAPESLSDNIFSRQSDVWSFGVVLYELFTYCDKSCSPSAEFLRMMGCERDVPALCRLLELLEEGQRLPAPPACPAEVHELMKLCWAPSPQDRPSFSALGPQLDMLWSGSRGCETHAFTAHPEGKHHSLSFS
Outline: (§2)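 Kinase reactions ran in buffer of 50 mM HEPES pH 7.5 with 1 mM EGTA, 10 mM MgCl2, 2 mM DTT and 0.01% Tween-20, using recombinant enzyme. Phosphorylated ULight substrate was detected by TR-FRET, and compound effect expressed as % inhibition against vehicle.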

Recombinant JAK1 = target: T2, Recombinant JAK1 (Homo sapiens, UniProt P23458); assay: JAK biochemical assay (LANCE Ultra TR-FRET), JAK1
T2 construct: purchased Carna Biosciences
Outline: as §2

Recombinant JAK2 = target: T3, Recombinant JAK2 (Homo sapiens, UniProt O60674); assay: JAK biochemical assay (LANCE Ultra TR-FRET), JAK2
T3 construct: purchased Carna Biosciences
Outline: as §2

[2] = system: STAT5 phosphorylation by IL-2 in HT-2 cells; assay: STAT5 phosphorylation by IL-2 in HT-2 cells (HTRF); type: cell-based; conditions: HT2, HT-2 cells
Outline: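 Starved HT-2 cells (120,000/well) were preincubated 30 min at 37 °C with compound (0.2% DMSO), then stimulated 20 min with human IL-2 (50 U/ml). pSTAT5 in lysates measured by HTRF, with unstimulated-cell background subtracted.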

[3] = system: collagen induced mouse arthritis model; assay: Mouse model of rheumatoid arthritis (collagen induced arthritis); type: in vivo; conditions: orally dosed, QD for 21 days; reference filgotinib
Excerpt: Rheumatoid arthritis (RA) is an autoimmune disease that can cause joint pain and damage throughout the body. Several cytokines such as IL-6 and IFN-γ activate the Janus kinase/signal transducers and activators of transcription (JAK/STAT) pathway. Inhibition of JAK/STAT pathway is considered as one of the therapeutic options for treatment of rheumatoid arthritis. Rodent models of arthritis can be used to evaluate the therapeutic potential of compounds dosed preventatively or therapeutically. These models include but are not limited to mouse or rat collagen-induced arthritis, rat adjuvant-induced arthritis, and collagen antibody-induced arthritis.
Compounds described herein are tested for JAK/STAT pathway inhibition driven efficacy in collagen induced mouse arthritis model. Compounds were orally dosed, QD for 21 days and at the end of the study, clinical symptoms, body weight and histopathology of ankle and paws were measured. Arthritis score was calculated for the compounds as well as reference standard, filgotinib.

[4] = system: STAT5 phosphorylation by GMCSF in TF-1 cells; assay: JAK cellular assay: STAT5 phosphorylation by GMCSF in TF-1 cells (HTRF); type: cell-based; conditions: Homo sapiens, TF-1 cells
Outline: as §1

[5] = IL-6 30 ng/ml, pSTAT3 HTRF, read-out: Cell Based Assay (μM) TF-1/IL-6/pSTAT3
[6] = IL-6 stimulation, read-out: Cell based IC50 (μM) TF-1/IL-6
[7] = read-out: Biochemical IC50 (nM) JAK3
[8] = read-out: Biochemical IC50 (nM) JAK1
[9] = recombinant JAK1, TR-FRET, read-out: Biochemical Assay (μM) JAK1
[10] = read-out: Biochemical IC50 (nM) JAK2
[11] = IL-2 50 U/ml, pSTAT5 HTRF, read-out: Cell Based Assay (μM) HT-2/IL-2/pSTAT5
[12] = IL-2 stimulation, read-out: Cell based IC50 (μM) HT-2/IL-2
[13] = GM-CSF stimulation, read-out: Cell based IC50 (μM) TF-1/GM-CSF

T3 sequence (O60674 whole entry): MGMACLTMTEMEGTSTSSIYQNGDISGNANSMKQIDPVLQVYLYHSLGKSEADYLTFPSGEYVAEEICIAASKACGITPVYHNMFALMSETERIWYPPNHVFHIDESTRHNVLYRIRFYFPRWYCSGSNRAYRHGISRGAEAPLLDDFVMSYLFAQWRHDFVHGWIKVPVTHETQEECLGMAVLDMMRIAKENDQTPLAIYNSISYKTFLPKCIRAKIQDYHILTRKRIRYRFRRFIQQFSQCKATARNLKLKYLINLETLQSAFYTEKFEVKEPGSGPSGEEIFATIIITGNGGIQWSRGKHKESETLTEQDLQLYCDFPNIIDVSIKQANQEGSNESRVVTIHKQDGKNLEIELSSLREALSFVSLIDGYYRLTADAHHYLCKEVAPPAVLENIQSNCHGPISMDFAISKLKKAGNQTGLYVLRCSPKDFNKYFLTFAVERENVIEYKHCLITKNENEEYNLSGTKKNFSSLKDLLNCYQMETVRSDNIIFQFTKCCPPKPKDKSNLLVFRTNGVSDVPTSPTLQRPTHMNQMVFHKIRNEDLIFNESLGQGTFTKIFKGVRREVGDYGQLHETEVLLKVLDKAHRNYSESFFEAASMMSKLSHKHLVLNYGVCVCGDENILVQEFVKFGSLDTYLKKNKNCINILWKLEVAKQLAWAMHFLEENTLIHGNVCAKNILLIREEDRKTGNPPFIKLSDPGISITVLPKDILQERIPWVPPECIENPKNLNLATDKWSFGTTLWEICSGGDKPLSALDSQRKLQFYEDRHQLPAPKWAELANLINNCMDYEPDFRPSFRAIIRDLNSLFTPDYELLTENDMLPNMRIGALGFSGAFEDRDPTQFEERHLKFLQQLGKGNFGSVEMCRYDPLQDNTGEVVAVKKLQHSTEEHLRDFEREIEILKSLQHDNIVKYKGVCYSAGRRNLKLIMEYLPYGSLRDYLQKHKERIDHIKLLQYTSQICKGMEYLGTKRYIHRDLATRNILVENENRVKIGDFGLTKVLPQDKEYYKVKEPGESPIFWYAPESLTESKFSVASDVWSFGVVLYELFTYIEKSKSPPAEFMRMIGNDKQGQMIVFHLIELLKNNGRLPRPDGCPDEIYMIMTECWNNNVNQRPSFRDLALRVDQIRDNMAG
T2 sequence (P23458 whole entry): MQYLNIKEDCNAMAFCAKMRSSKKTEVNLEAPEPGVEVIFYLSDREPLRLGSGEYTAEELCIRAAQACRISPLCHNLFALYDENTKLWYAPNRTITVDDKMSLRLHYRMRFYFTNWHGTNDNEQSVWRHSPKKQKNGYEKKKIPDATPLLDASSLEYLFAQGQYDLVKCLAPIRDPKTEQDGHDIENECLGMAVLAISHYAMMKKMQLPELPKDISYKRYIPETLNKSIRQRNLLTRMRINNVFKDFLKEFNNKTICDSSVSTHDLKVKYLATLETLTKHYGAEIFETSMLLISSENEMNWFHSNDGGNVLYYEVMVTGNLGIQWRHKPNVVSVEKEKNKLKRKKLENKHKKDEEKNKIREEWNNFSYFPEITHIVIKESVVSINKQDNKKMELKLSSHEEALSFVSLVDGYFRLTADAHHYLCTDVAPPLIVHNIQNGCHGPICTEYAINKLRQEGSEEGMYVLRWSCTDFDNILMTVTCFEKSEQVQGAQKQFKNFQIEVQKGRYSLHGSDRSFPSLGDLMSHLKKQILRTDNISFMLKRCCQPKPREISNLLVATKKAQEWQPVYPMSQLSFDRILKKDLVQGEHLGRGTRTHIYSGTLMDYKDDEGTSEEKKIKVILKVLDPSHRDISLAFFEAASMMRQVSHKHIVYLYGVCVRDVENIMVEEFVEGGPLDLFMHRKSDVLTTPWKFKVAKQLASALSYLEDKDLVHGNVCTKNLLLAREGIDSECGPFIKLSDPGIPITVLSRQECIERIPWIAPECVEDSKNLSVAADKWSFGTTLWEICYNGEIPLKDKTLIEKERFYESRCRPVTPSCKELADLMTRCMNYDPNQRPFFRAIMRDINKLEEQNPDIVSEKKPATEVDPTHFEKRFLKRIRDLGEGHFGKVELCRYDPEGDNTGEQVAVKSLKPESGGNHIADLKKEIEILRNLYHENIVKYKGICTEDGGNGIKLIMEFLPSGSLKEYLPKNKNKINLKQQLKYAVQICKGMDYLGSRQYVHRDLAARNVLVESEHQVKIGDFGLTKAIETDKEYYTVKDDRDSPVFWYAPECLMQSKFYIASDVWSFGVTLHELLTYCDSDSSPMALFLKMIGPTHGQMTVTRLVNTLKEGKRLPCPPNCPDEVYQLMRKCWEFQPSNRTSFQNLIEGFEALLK

## CC(C)NC(=O)CC[C@@H](c1ccc(-n2cc(-c3ccnc4[nH]cnc34)cn2)nc1)C(F)(F)F [Example 1215, (S)-4-(6-(4-(3H-imidazo[4,5-b]pyridin-7-yl)-1H-pyrazol-1-yl)pyridin-3-yl)-5,5,5-trifluoro-N-isopropylpentanamide]
[1]; [5]
  IC50: 0.32 µM
[1]; [6]
  IC50: 0.3 µM
Recombinant JAK3; [7]
  IC50: 11 nM
Recombinant JAK3; recombinant JAK3, TR-FRET, read-out: Biochemical Assay (μM) JAK3
  IC50: < 100 nM
Recombinant JAK1; [8]
  IC50: 0.5 nM
Recombinant JAK1; [9]
  IC50: < 100 nM
Recombinant JAK2; [10]
  IC50: 40 nM
Recombinant JAK2; recombinant JAK2, TR-FRET, read-out: Biochemical Assay (μM) JAK2
  IC50: < 100 nM
[2]; [11]
  IC50: 0.75 µM
[2]; [12]
  IC50: 0.7 µM
[3]
  efficacy (arthritis score) in collagen induced mouse arthritis model: very good efficacy
[4]; [13]
  IC50: > 10 µM

## CN1CCC(C(O)(c2ccc(-n3cc(-c4ccnc5[nH]cnc45)cn3)nc2)C(F)(F)F)CC1 (centres unmarked) [Example 1133, 1-(6-(4-(3H-imidazo[4,5-b]pyridin-7-yl)-1H-pyrazol-1-yl)pyridin-3-yl)-2,2,2-trifluoro-1-(1-methylpiperidin-4-yl)ethanol]
[1]; [5]
  IC50: 0.6 µM
[1]; [6]
  IC50: 0.6 µM
Recombinant JAK3; [7]
  IC50: 100 nM
Recombinant JAK1; [8]
  IC50: 8 nM
Recombinant JAK1; [9]
  IC50: < 100 nM
Recombinant JAK2; [10]
  IC50: 152 nM
[2]; [11]
  IC50: 2.3 µM
[2]; [12]
  IC50: 2.3 µM
[3]
  efficacy (arthritis score) in collagen induced mouse arthritis model: very good efficacy
[4]; [13]
  IC50: > 10 µM
[4]; GMCSF 5 ng/ml, pSTAT5 HTRF, read-out: Cell Based Assay (μM) TF-1/GMCSF/pSTAT5
  IC50: > 10 µM
